# Source: PubChem BioAssay AID1259411 (Chemical Carcinogenesis Research Information System (CCRIS), 2018)
# Activity calls are given as the source filed them. No rule for the calls is given here.
# Tested on: rodent carcinogenicity bioassays, tumor incidence
# Assay: CCRIS carcinogenicity studies
# Procedure, shortened: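 NCI-built, expert-reviewed records of carcinogenicity and related test outcomes (mutagenicity, tumor promotion/inhibition) compiled from published and report sources, historical span 1985-2011, not updated.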
structure (smiles),measurement,setting,value
C=CN(C)N=O,carcinogen call,"Species: RAT, Route: INHALATION, Tumor Site: Type of Lesion: NASAL CAVITY",active; positive
same,carcinogen call,"Species: RAT, Route: ORAL, Tumor Site: Type of Lesion: ESOPHAGUS",active; positive
N#[N+]c1ccc(CO)cc1,carcinogen call,"Species: MOUSE, Strain/Sex: SWISS/FEMALE, Route: SUBCUTANEOUS, Dose: 0, 50 UG/G BW IN 0.01 ML 0.9% SALINE 1/WK FOR 26 WK (STUDY DURATION: 140 WK), Tumor Site: Type of Lesion: SUBCUTIS: TUMOR, SKIN: TUMOR",active; positive
same,carcinogen call,"Species: MOUSE, Strain/Sex: SWISS/MALE, Route: SUBCUTANEOUS, Dose: 0, 50 UG/G BW IN 0.01 ML 0.9% SALINE 1/WK FOR 26 WK (STUDY DURATION: 140 WK), Tumor Site: Type of Lesion: SUBCUTIS: TUMOR, SKIN: TUMOR",active; positive
O[C@H]1C=Cc2c(ccc3cccnc23)[C@@H]1O,carcinogen call,"Species: MOUSE, Strain/Sex: CD-1/FEMALE, Route: INTRAPERITONEAL, Dose: 0, 5, 10 AND 20 µL OF A 0.05 MOLAR SOLUTION ON DAYS 1, 8 AND 15 OF LIFE RESPECTIVELY (TOTAL DOSE: 1.75 UMOL) (STUDY DURA, Dose: 0, 5, 10 AND 20 µL OF A 0.05 MOLAR SOLUTION ON DAYS 1, 8 AND 15 OF LIFE RESPECTIVELY (TOTAL DOSE: 1.75 UMOL) (STUDY DURA",inactive; negative
same,carcinogen call,"Species: MOUSE, Strain/Sex: CD-1/MALE, Route: INTRAPERITONEAL, Dose: 0, 5, 10 AND 20 µL OF A 0.05 MOLAR SOLUTION ON DAYS 1, 8 AND 15 OF LIFE RESPECTIVELY (TOTAL DOSE: 1.75 UMOL) (STUDY DURA, Dose: 0, 5, 10 AND 20 µL OF A 0.05 MOLAR SOLUTION ON DAYS 1, 8 AND 15 OF LIFE RESPECTIVELY (TOTAL DOSE: 1.75 UMOL) (STUDY DURA",inactive; negative
O=C(O)C1C(C(=O)O)C2(Cl)C(Cl)=C(Cl)C1(Cl)C2(Cl)Cl (configuration not stated),carcinogen call,"Species: MOUSE, Strain/Sex: B6C3F1/FEMALE, Route: ORAL, Dose: 0, 620, 1250 PPM IN DIET FOR 103 WK (STUDY DURATION: 104 WK), Dose: 0, 620, 1250 PPM IN DIET FOR 103 WK (STUDY DURATION: 104 WK)",inactive; negative
same,carcinogen call,"Species: MOUSE, Strain/Sex: B6C3F1/MALE, Route: ORAL, Dose: 0, 620, 1250 PPM IN DIET FOR 103 WK (STUDY DURATION: 104 WK), Dose: 0, 620, 1250 PPM IN DIET FOR 103 WK (STUDY DURATION: 104 WK), Tumor Site: Type of Lesion: LIVER: HEPATOCELLULAR ADENOMA, LIVER: HEPATOCELLULAR CARCINOMA, LIVER: HEPATOCELLULAR ADENOMA OR CARCINOMA, Tumor Site: Type of Lesion: LIVER: HEPATOCELLULAR ADENOMA, LIVER: HEPATOCELLULAR CARCINOMA, LIVER: HEPATOCELLULAR ADENOMA OR CARCINOMA",active; positive
same,carcinogen call,"Species: RAT, Strain/Sex: F344/FEMALE, Route: ORAL, Dose: 0, 620, 1250 PPM IN DIET FOR 103 WK (STUDY DURATION: 104 WK), Dose: 0, 620, 1250 PPM IN DIET FOR 103 WK (STUDY DURATION: 104 WK), Tumor Site: Type of Lesion: LIVER: NEOPLASTIC NODULE, LIVER: HEPATOCELLULAR CARCINOMA, LIVER: NEOPLASTIC NODULE OR HEPATOCELLULAR CARCINOMA, UTERUS:, Tumor Site: Type of Lesion: LIVER: NEOPLASTIC NODULE, LIVER: HEPATOCELLULAR CARCINOMA, LIVER: NEOPLASTIC NODULE OR HEPATOCELLULAR CARCINOMA, UTERUS:",active; positive
same,carcinogen call,"Species: RAT, Strain/Sex: F344/MALE, Route: ORAL, Dose: 0, 620, 1250 PPM IN DIET FOR 103 WK (STUDY DURATION: 104 WK), Dose: 0, 620, 1250 PPM IN DIET FOR 103 WK (STUDY DURATION: 104 WK), Tumor Site: Type of Lesion: LUNG: ALVEOLAR/BRONCHIOLAR ADENOMA, LUNG: ALVEOLAR/BRONCHIOLAR ADENOMA OR CARCINOMA, LIVER: NEOPLASTIC NODULE, LIVER: NE, Tumor Site: Type of Lesion: LUNG: ALVEOLAR/BRONCHIOLAR ADENOMA, LUNG: ALVEOLAR/BRONCHIOLAR ADENOMA OR CARCINOMA, LIVER: NEOPLASTIC NODULE, LIVER: NE",active; positive
OCC(Br)CBr (configuration not stated),carcinogen call,"Species: MOUSE, Strain/Sex: B6C3F1/FEMALE, Route: DERMAL, Dose: 0, 188, 375 MG/KG IN ETHANOL APPLIED TO SUBSCAPULAR SKIN 5 D/WK FOR 39-42 WK (STUDY DURATION: 42 WK), Dose: 0, 188, 375 MG/KG IN ETHANOL APPLIED TO SUBSCAPULAR SKIN 5 D/WK FOR 39-42 WK (STUDY DURATION: 42 WK), Tumor Site: Type of Lesion: SKIN: SQUAMOUS CELL PAPILLOMA, FORESTOMACH: SQUAMOUS CELL PAPILLOMA, SQUAMOUS CELL CARCINOMA",active; positive
same,carcinogen call,"Species: MOUSE, Strain/Sex: B6C3F1/MALE, Route: DERMAL, Dose: 0, 188, 375 MG/KG IN ETHANOL APPLIED TO SUBSCAPULAR SKIN 5 D/WK FOR 36-39 WK (STUDY DURATION: 42 WK), Dose: 0, 188, 375 MG/KG IN ETHANOL APPLIED TO SUBSCAPULAR SKIN 5 D/WK FOR 36-39 WK (STUDY DURATION: 42 WK), Tumor Site: Type of Lesion: SKIN: SQUAMOUS CELL PAPILLOMA, FORESTOMACH: SQUAMOUS CELL PAPILLOMA, LUNG: ALVEOLAR/BRONCHIOLAR ADENOMA, LIVER: HEPATOCE, Tumor Site: Type of Lesion: SKIN: SQUAMOUS CELL PAPILLOMA, FORESTOMACH: SQUAMOUS CELL PAPILLOMA, LUNG: ALVEOLAR/BRONCHIOLAR ADENOMA, LIVER: HEPATOCE",active; positive
same,carcinogen call,"Species: RAT, Strain/Sex: F344/FEMALE, Route: DERMAL, Dose: 0, 188, 375 MG/KG IN ETHANOL APPLIED TO SUBSCAPULAR SKIN 5 D/WK FOR 52-55 WK (STUDY DURATION: 56 WK), Dose: 0, 188, 375 MG/KG IN ETHANOL APPLIED TO SUBSCAPULAR SKIN 5 D/WK FOR 52-55 WK (STUDY DURATION: 56 WK), Tumor Site: Type of Lesion: SKIN: SQUAMOUS CELL PAPILLOMA OR CARCINOMA, BASAL CELL TUMOR, KERATOACANTHOMA, ORAL MUCOSA: SQUAMOUS CELL PAPILLOMA, SQU",active; positive
same,carcinogen call,"Species: RAT, Strain/Sex: F344/MALE, Route: DERMAL, Dose: 0, 188, 375 MG/KG IN ETHANOL APPLIED TO SUBSCAPULAR SKIN 5 D/WK FOR 48-51 WK (STUDY DURATION: 56 WK), Dose: 0, 188, 375 MG/KG IN ETHANOL APPLIED TO SUBSCAPULAR SKIN 5 D/WK FOR 48-51 WK (STUDY DURATION: 56 WK), Tumor Site: Type of Lesion: SKIN: SQUAMOUS CELL PAPILLOMA OR CARCINOMA, BASAL CELL TUMOR, SEBACEOUS ADENOMA, KERATOACANTHOMA, ORAL MUCOSA: SQUAMOUS",active; positive
O[C@H]1C=Cc2c(ccc3c2-c2cccc4cccc-3c24)[C@@H]1O,carcinogen call,"Species: MOUSE, Strain/Sex: CD-1/FEMALE, Route: INTRAPERITONEAL, Dose: 0, 0.275, 1.1 UMOL (TOTAL DOSE) ADMINISTERED OVER DAYS 1, 8, AND 15 OF LIFE (STUDY DURATION: 52 WEEKS), Dose: 0, 0.275, 1.1 UMOL (TOTAL DOSE) ADMINISTERED OVER DAYS 1, 8, AND 15 OF LIFE (STUDY DURATION: 52 WEEKS), Tumor Site: Type of Lesion: LUNG: ALVEOLAR/BRONCHIOLAR CARCINOMA",active; positive
same,carcinogen call,"Species: MOUSE, Strain/Sex: CD-1/MALE, Route: INTRAPERITONEAL, Dose: 0, 0.275, 1.1 UMOL(TOTAL DOSE) ADMINISTERED OVER DAYS 1, 8, AND 15 OF LIFE (STUDY DURATION: 52 WEEKS), Dose: 0, 0.275, 1.1 UMOL(TOTAL DOSE) ADMINISTERED OVER DAYS 1, 8, AND 15 OF LIFE (STUDY DURATION: 52 WEEKS), Tumor Site: Type of Lesion: LUNG: ALVEOLAR/BRONCHIOLAR CARCINOMA, LIVER: ADENOMA OR CARCINOMA",active; positive
Cc1cc(Cl)ccc1N,carcinogen call,"Species: MOUSE, Strain/Sex: B6C3F1/FEMALE, Route: ORAL, Dose: 0, 1250, 5000 PPM IN DIET, Dose: 0, 1250, 5000 PPM IN DIET, Tumor Site: Type of Lesion: BLOOD VESSELS: HEMANGIOMA OR HEMANGIOSARCOMA",active; positive
same,carcinogen call,"Species: MOUSE, Strain/Sex: B6C3F1/MALE, Route: ORAL, Dose: 0, 3750, 15000 PPM IN DIET, Dose: 0, 3750, 15000 PPM IN DIET, Tumor Site: Type of Lesion: BLOOD VESSELS: HEMANGIOMA OR HEMANGIOSARCOMA",active; positive
same,carcinogen call,"Species: RAT, Strain/Sex: F344/FEMALE, Route: ORAL, Dose: 0, 1250, 5000 PPM IN DIET, Dose: 0, 1250, 5000 PPM IN DIET",inactive; negative
same,carcinogen call,"Species: RAT, Strain/Sex: F344/MALE, Route: ORAL, Dose: 0, 1250, 5000 PPM IN DIET, Dose: 0, 1250, 5000 PPM IN DIET",inactive; negative
O=C1C=CC(=O)C(c2ccccc2)=C1,carcinogen call,"Species: MOUSE, Strain/Sex: CD-1/FEMALE, Route: DERMAL, Dose: 0, 1 MG IN DMSO 5/D WK FOR 40 WK (STUDY DURATION: 40 WK)",inactive; negative
same,carcinogen call,"Species: RAT, Strain/Sex: F344/FEMALE, Route: INTRAVESICULAR, Dose: 0, 1% IN 0.2 ML SALINE 2/WK FOR 5 WK (STUDY DURATION: 36 WK)",inactive; negative
